Read-outs that look alike come from different tables or passages of the source.
Columns and labels:
gastric mucosa = test: Ulcerogenic liability (ulcer index); type: in vivo, albino mice
Protocol: The ulcerogenic liability was investigated in albino mice using the standard method. […] The animals were fasted 18 h before drug administration. […] The control group animals were given saline solution only with few drops of Tween 80. […] The gastric mucosa was examined with a magnifying lens (10×) for the presence of lesions and erosions.
1. percentage incidence of ulcer divided by 10;
2. average number of ulcers per stomach; and
3. average severity of ulcers;

[1] = system: PHA-stimulated splenocytes; test: Proliferative response of PHA-stimulated splenocytes (MTT assay); type: cell-based; settings: PHA 5 μg/ml, 72 hr; compounds at 5 μM (method says 10 μM); ratio of O.D. versus vehicle control
Procedure, shortened: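 Freshly prepared splenocytes (1×10^6 cells/well) were cultured for 72 h at 37° C with compound at 10 μM final, with or without PHA (5 μg/ml). Viability was read by MTT (4 h), with absorbance at 570 nm against 690 nm reference. Stimulation index is the OD ratio of treated versus vehicle cultures.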

[2] = system: Salmonella typhi ATCC19430; test: Antimicrobial MIC, agar dilution; type: cell-based; settings: Salmonella enterica, read-out: Minimum inhibitory concentration (MIC)
[3] = system: HCT116 (colon) carcinoma cell line; test: Anti-tumor properties, MTT; type: cell-based; settings: Homo sapiens; for IC50: read-out: IC50 (μM) HCT116 (colon); for activity at 100 µM: read-out: Percentage growth of tumor cell lines treated with the tested compounds (±SD)
Procedure, shortened: (§1)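 Cells seeded at 10×10^3 per well for 24 h, then exposed to compound in serum-free medium (final up to 100 μM, 0.5% DMSO vehicle) for 72 h in triplicate. Viability by MTT reduction (4 h, SDS solubilised), absorbance 595 nm/ref 620 nm; IC50 from survival curves.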

[4] = system: HepG2 (hepatocellular) carcinoma cell line; test: Anti-tumor properties, MTT; type: cell-based; settings: Homo sapiens; for activity at 100 µM: read-out: Percentage growth of tumor cell lines treated with the tested compounds (±SD)
Procedure, shortened: as §1

[5] = system: MCF7 (breast) carcinoma cell line; test: Anti-tumor properties, MTT; type: cell-based; settings: Homo sapiens; for activity at 100 µM: read-out: Percentage growth of tumor cell lines treated with the tested compounds (±SD)
Procedure, shortened: as §1

[6] = system: A-549 (lung) carcinoma cell line; test: Anti-tumor properties, MTT; type: cell-based; settings: Homo sapiens, A549
[7] = system: PC3 (prostate) carcinoma cell line; test: Anti-tumor properties, MTT; type: cell-based; settings: Homo sapiens
[8] = system: Staphylococcus aureus ATCC25923; test: Antimicrobial MIC, agar dilution
[9] = system: Streptococcus pyogenes ATCC19615; test: Antimicrobial MIC, agar dilution
[10] = system: Pseudomonas aeruginosa ATCC27853; test: Antimicrobial MIC, agar dilution
[11] = system: Candida albicans (local isolate); test: Antimicrobial MIC, agar dilution; settings: Candida albicans, read-out: Minimum inhibitory concentration (MIC)
[12] = system: lipopolysaccharide-stimulated peritoneal macrophages; test: Production of nitric oxide by lipopolysaccharide-stimulated peritoneal macrophages (Greiss reagent); type: cell-based; design: Potency (%): % inhibition of nitric oxide production relative to lipopolysaccharide-stimulated macrophages: concentration or dose not given beside the values; settings: LPS-stimulated peritoneal macrophages; for Nitric oxide (nitrite) concentration, μM (average ± SD): 24 h, nitrite by Greiss reagent
Procedure, shortened: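 Macrophages in nitrite-free medium with 0.1% BSA were stimulated with LPS at 0.5–10 ng/ml, some wells also receiving epinephrine, norepinephrine or dopamine at […], for 24 h at 37° C. Nitrite in supernatants was measured with Greiss reagent, 15 min at room temperature, absorbance 532 nm.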

MCF-7 cells = test: Effect on doxorubicin induced cytotoxicity (MTT); settings: for viability at 100 µM: Homo sapiens, MCF7, 48 h; for Percentage of viable cells MCF-7 (average ± SD): 10 μM DOX in combination with 100 μM curcumin derivative
Procedure, shortened: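 MCF-7 cells were exposed for 48 hr to 100 μM curcumin derivative alone or combined with 10 μM doxorubicin. Controls got medium, DMSO vehicle, or vehicle+doxorubicin. Percent viable cells was read by MTT assay.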

[13] = orally, three successive days, 10 mg/kg indomethacin mol equivalent
[14] = orally, three successive days, 10 mg/kg indomethacin mol equivalent, 6 animals per group
[15] = sum of the three values, orally, three successive days, 10 mg/kg indomethacin mol equivalent
[16] = HepG2, read-out: IC50 (μM) HepG2 (liver)
[17] = MCF7, read-out: IC50 (μM) MCF7 (breast)
[18] = ATCC25923, 18 h, read-out: Minimum inhibitory concentration (MIC)
[19] = ATCC25923, read-out: Minimum inhibitory concentration (MIC)
[20] = ATCC19615, 18 h, read-out: Minimum inhibitory concentration (MIC)
[21] = ATCC19615, read-out: Minimum inhibitory concentration (MIC)
[22] = ATCC27853, 18 h, read-out: Minimum inhibitory concentration (MIC)
[23] = ATCC27853, read-out: Minimum inhibitory concentration (MIC)
[24] = both, albino, mouse, in vivo, po, 10 mg/kg, 3 days
[25] = read-out: Percentage of viable cells MCF-7 (average ± SD)

Row | SMILES | % Incidence of ulcer divided by 10 (gastric mucosa; [13]) | Average of ulcer number (gastric mucosa; [13]) | Average severity of ulcer (gastric mucosa; [13]) | Number of animals with ulcer (gastric mucosa; [14]) | Ulcer index (gastric mucosa; [15]) | Stimulation Index (average ± SD) [1] | MIC ([2]; 18 h) [µg/mL] | MIC [2] [µM] | IC50 ([3]; HCT-116) [µM] | IC50 [4, 16] [µM] | IC50 [5, 17] [µM] | IC50 [6] [µM] | MIC [8, 18] [µg/mL] | MIC [8, 19] [µM] | MIC [9, 20] [µg/mL] | MIC [9, 21] [µM] | MIC [10, 22] [µg/mL] | MIC [10, 23] [µM] | MIC ([11]; 18 h) [µg/mL] | MIC [11] [µM] | further results
1 | COc1cc(/C=C/C(=O)CC(=O)/C=C/c2ccc(OC(=O)[C@@H](CCSC)NC(=O)OC(C)(C)C)c(OC)c2)ccc1OC(=O)[C@@H](CCSC)NC(=O)OC(C)(C)C [Boc-D-Met-Cur, ((1E,6E)-3,5-dioxohepta-1,6-diene-1,7-diyl)bis(2-methoxy-4,1-phenylene) (2R,2′R)-bis(2-((tert-butoxycarbonyl)amino)-4-(methylthio)butanoate)] | 0 | 0 | 0 | 0/6 | 0 | 2.53 ± 0.08 | 1 | 1.2 | > 100 | > 100 | 22.3 | > 100 | 0.25 | 0.301 | 0.125 | 0.15 | 0.25 | 0.301 | 0.5 | 0.602 | IC50 [7]: > 100 µM
2 | COc1cc(/C=C/C(=O)CC(=O)/C=C/c2ccc(OC(=O)[C@H](Cc3ccccc3)NC(=O)OC(C)(C)C)c(OC)c2)ccc1OC(=O)[C@H](Cc1ccccc1)NC(=O)OC(C)(C)C [Boc-L-Phe-Cur, ((1E,6E)-3,5-dioxohepta-1,6-diene-1,7-diyl)bis(2-methoxy-4,1-phenylene) (2S,2′S)-bis(2-((tert-butoxycarbonyl)amino)-3-phenylpropanoate)] | – | – | – | – | – | 2.56 ± 0.14 | 0.25 | 0.29 | > 100 | > 100 | > 100 | > 100 | 0.25 | 0.29 | 0.125 | 0.145 | 1 | 1.16 | 1 | 1.16 | IC50 [7]: > 100 µM
3 | COc1cc(/C=C/C(=O)CC(=O)/C=C/c2ccc(O)c(OC)c2)ccc1O [Curcumin, (1E,6E)-1,7-bis(4-hydroxy-3-methoxyphenyl)hepta-1,6-diene-3,5-dione] | – | – | – | – | – | 1.52 ± 0.10 | 0.125 | 0.339 | – | – | – | – | 0.125 | 0.339 | 0.125 | 0.339 | 0.125 | 0.339 | 0.125 | 0.339 | % Incidence of ulcer divided by 10 (gastric mucosa; [24]): 3.33; Average of ulcer number (gastric mucosa; [24]): 0.33; Average severity of ulcer (gastric mucosa; [24]): 0.33; Number of animals with ulcer (gastric mucosa; [24]): 2/6; Ulcer index (gastric mucosa; [24]): 3.99; Potency (%): % inhibition of nitric oxide production relative to lipopolysaccharide-stimulated macrophages [12]: 37.11%; Nitric oxide (nitrite) concentration, μM (average ± SD) [12]: 17.18 ± 0.65 µM; activity at 100 µM ([3]; HCT-116, 72 h): 2.4 ± 3.4%; IC50 ([4]; HepG2, 72 h): 38 µM; activity at 100 µM ([4]; HepG2, 72 h): 0.4%; IC50 ([5]; MCF7, 72 h): 16 µM; activity at 100 µM ([5]; MCF7, 72 h): 4.6 ± 0.2%; viability at 100 µM (MCF-7 cells; read-out: Percentage of viable cells MCF-7 (average ± SD), 0 μM DOX, 100 μM curcumin derivative alone, 48 hr): 10.8 ± 4.7%; viability at 100 µM (MCF-7 cells; read-out: Percentage of viable cells MCF-7 (average ± SD), 10 μM DOX in combination with 100 μM curcumin derivative, 48 hr): 3.16 ± 1.62%
4 | COc1cc(/C=C/C(=O)CC(=O)/C=C/c2ccc(OC(=O)CNC(=O)OCC3c4ccccc4-c4ccccc43)c(OC)c2)ccc1OC(=O)CNC(=O)OCC1c2ccccc2-c2ccccc21 [Fmoc-Gly-Cur, ((1E,6E)-3,5-dioxohepta-1,6-diene-1,7-diyl)bis(2-methoxy-4,1-phenylene) bis(2-((((9H-fluoren-9-yl)methoxy)carbonyl)amino)acetate)] | 0 | 0 | 0 | 0/6 | 0 | 1.76 ± 0.20 | 1 | 1.08 | – | – | – | – | 1 | 1.08 | 1 | 1.08 | 1 | 1.08 | 2 | 2.16 | Potency (%): % inhibition of nitric oxide production relative to lipopolysaccharide-stimulated macrophages [12]: 31.43%; Nitric oxide (nitrite) concentration, μM (average ± SD) [12]: 18.73 ± 1.29 µM; activity at 100 µM ([3]; HCT-116, HCT116, 100 μM, 72 h): 95.8 ± 6.7%; activity at 100 µM ([4]; HepG2, 100 μM, 72 h): 82.1 ± 7%; activity at 100 µM ([5]; MCF7, 100 μM, 72 h): 87 ± 1.5%; Percentage of viable cells MCF-7 (average ± SD) (MCF-7 cells; 48 hr): 30.35; viability at 100 µM (MCF-7 cells; [25]): 98.4 ± 1.46%
5 | COc1cc(/C=C/C(=O)CC(=O)/C=C/c2ccc(OC(=O)[C@H](CCSC)NC(=O)OCC3c4ccccc4-c4ccccc43)c(OC)c2)ccc1OC(=O)[C@H](CCSC)NC(=O)OCC1c2ccccc2-c2ccccc21 [Fmoc-Met-Cur, ((1E,6E)-3,5-dioxohepta-1,6-diene-1,7-diyl)bis(2-methoxy-4,1-phenylene) (2S,2′S)-bis(2-((((9H-fluoren-9-yl)methoxy)carbonyl)amino)-4-(methylthio)butanoate)] | 0 | 0 | 0 | 0/6 | 0 | 1.07 ± 0.16 | 2 | 1.86 | – | – | – | – | 0.25 | 0.233 | 0.125 | 0.116 | 2 | 1.86 | 0.5 | 0.465 | Potency (%): % inhibition of nitric oxide production relative to lipopolysaccharide-stimulated macrophages [12]: 47.91%; Nitric oxide (nitrite) concentration, μM (average ± SD) [12]: 14.23 ± 1.05 µM; activity at 100 µM ([3]; HCT-116, HCT116, 100 μM, 72 h): 96.4 ± 1.4%; activity at 100 µM ([4]; HepG2, 100 μM, 72 h): 92.4 ± 5.1%; activity at 100 µM ([5]; MCF7, 100 μM, 72 h): 88.9 ± 5%; Percentage of viable cells MCF-7 (average ± SD) (MCF-7 cells; 48 hr): 38.75 ± 1.65; viability at 100 µM (MCF-7 cells; [25]): 99.3 ± 3.16%
6 | COc1cc(/C=C/C(=O)CC(=O)/C=C/c2ccc(OC(=O)[C@H](CCC(N)=O)NC(=O)OCc3ccccc3)c(OC)c2)ccc1OC(=O)[C@H](CCC(N)=O)NC(=O)OCc1ccccc1 [Z-L-Gln-Cur, ((1E,6E)-3,5-dioxohepta-1,6-diene-1,7-diyl)bis(2-methoxy-4,1-phenylene) (2S,2′S)-bis(5-amino-2-(((benzyloxy)carbonyl)amino)-5-oxopentanoate)] | – | – | – | – | – | 2.37 ± 0.16 | 0.5 | 0.56 | > 100 | > 100 | 10.2 | 46.1 | 0.5 | 0.56 | 0.125 | 0.14 | 1 | 1.12 | 0.5 | 0.56 | IC50 [7]: 90.7 µM
